Data as given in patent publication US12714107B2, “Dioxazolines and their use as herbicides” (BASF SE, priority 2020, dated 2026).

What was measured:
ECHCG [1] = test: greenhouse herbicidal activity, post-emergence method; format: in vivo, Echinocloa crus-galli; conditions: scale 0 to 100
Source text: (§1) The culture containers used were plastic flowerpots containing loamy sand with approximately 3.0% of humus as the substrate. The seeds of the test plants were sown separately for each species.
(§2) For the pre-emergence treatment, the active ingredients, which had been suspended or emulsified in water, were applied directly after sowing by means of finely distributing nozzles. The containers were irrigated gently to promote germination and growth and subsequently covered with transparent plastic hoods until the test plants had rooted. This cover caused uniform germination of the test plants, unless this had been impaired by the active ingredients. For the post-emergence treatment, the test plants were first grown to a height of 3 to 15 cm, depending on the plant habit, and only then treated with the active ingredients which had been suspended or emulsified in water. For this purpose, the test plants were either sown directly and grown in the same containers, or they were first grown separately as seedlings and transplanted into the test containers a few days prior to treatment.
(§3) Depending on the species, the test plants were kept at 10-25° C. or 20-35° C., respectively. The test period extended over 2 to 4 weeks. During this time, the test plants were tended, and their response to the individual treatments was evaluated.
(§4) Evaluation was carried out using a scale from 0 to 100. […]

AVEFA = test: as above; format: in vivo, Avena fatua; conditions: scale 0 to 100
Source text: as §1, §2, §3, §4

APESV = test: greenhouse herbicidal activity, pre-emergence method; format: in vivo, Apera spica-venti; conditions: application rate 0,500 kg/ha, scale 0 to 100
Source text: as §1, §2, §3, §4

ALOMY = test: greenhouse herbicidal activity, post-emergence method; format: in vivo, Alopercurus myosuroides; conditions: application rate 0,500 kg/ha, scale 0 to 100
Source text: as §1, §2, §3, §4

AMARE [2] = test: greenhouse herbicidal activity, pre-emergence method; format: in vivo, Amaranthus retroflexus; conditions: scale 0 to 100
Source text: as §1, §2, §3
Evaluation was carried out using a scale from 0 to 100. 100 means no emergence of the test plants, or complete destruction of at least the aerial moieties, and 0 means no damage, or normal course of growth. A good herbicidal activity is given at values of 80 to 90 and a very good herbicidal activity is given at values of 90 to 100.
The test plants used in the greenhouse experiments were of the following species: […]

SETVI = test: greenhouse herbicidal activity, post-emergence method; format: in vivo, Setaria viridis; conditions: application rate 0,500 kg/ha, scale 0 to 100
Source text: as §1, §2, §3, §4

ECHCG [3] = test: greenhouse herbicidal activity, pre-emergence method; format: in vivo, Echinocloa crus-galli; conditions: scale 0 to 100
Source text: as §1, §2, §3, §4

SETFA = test: as above; format: in vivo, Setaria faberi; conditions: application rate 1,000 kg/ha, scale 0 to 100
Source text: as §1, §2, §3, §4

AMARE [4] = test: greenhouse herbicidal activity, post-emergence method; format: in vivo, Amaranthus retroflexus; conditions: application rate 1,000 kg/ha, scale 0 to 100
Source text: as §1, §2, §3, §4

`COC(=O)CC(C)NC(=O)C1(C)ON=C(c2cc(Cl)cc(Cl)c2)O1` (centres unmarked) [compound 11] was tested, and the “herbicidal activity against ECHCG” value (ECHCG [1]; application rate 0,500 kg/ha) was “very good (a very good herbicidal activity is given at values of 90 to 100)”.
With `COC(=O)CCCNC(=O)C1(C)ON=C(c2cc(Cl)cc(Cl)c2)O1` (centres unmarked) [compound 12] the “herbicidal activity against AVEFA” value (AVEFA; application rate 0,500 kg/ha) was “good (A good herbicidal activity is given at values of 80 to 90)” and the “herbicidal activity against APESV” value (APESV) was “good (A good herbicidal activity is given at values of 80 to 90)”.
For `COC(=O)C[C@H](C)NC(=O)C1(C(F)(F)F)ON=C(c2cc(Cl)cc(Cl)c2)O1` (stereo partly drawn) [compound 13, methyl (3S)-3-[[3-(3,5-dichlorophenyl)-5-(trifluoromethyl)-1,4,2-dioxazole-5-carbonyl]amino]butanoate], the “herbicidal activity against ALOMY” value (ALOMY) was “good (A good herbicidal activity is given at values of 80 to 90)” and the “herbicidal activity against AMARE” value (AMARE [2]; application rate 0,500 kg/ha) was “very good (a very good herbicidal activity is given at values of 90 to 100)”.
With `COC(=O)C1CC(NC(=O)C2(C)ON=C(c3cc(F)cc(F)c3)O2)C1` (centres unmarked) [compound 16] the “herbicidal activity against SETVI” value (SETVI) was “very good (a very good herbicidal activity is given at values of 90 to 100)”.
For `CC(CC(=O)O)NC(=O)C1(C)ON=C(c2cc(Cl)cc(Cl)c2)O1` (centres unmarked) [compound 17], the “herbicidal activity against ECHCG” value (ECHCG [3]; application rate 1,000 kg/ha) was “good (A good herbicidal activity is given at values of 80 to 90)” and the “herbicidal activity against SETFA” value (SETFA) was “very good (a very good herbicidal activity is given at values of 90 to 100)”.
For `COC(=O)C1C=CC(NC(=O)C2(C)ON=C(c3cc(F)cc(F)c3)O2)C1` (centres unmarked) [compound 18], the “herbicidal activity against AMARE” value (AMARE [2]; application rate 1,000 kg/ha) was “very good (a very good herbicidal activity is given at values of 90 to 100)”.
In the case of `COC(=O)C1C=CC(NC(=O)C2(C(F)(F)F)ON=C(c3cc(Cl)cc(Cl)c3)O2)C1` (centres unmarked) [compound 19], the “herbicidal activity against AVEFA” value (AVEFA; application rate 0,250 kg/ha) is reported as “very good (a very good herbicidal activity is given at values of 90 to 100)”.
`C=CC1(C(=O)NC(C)CC(=O)OC)ON=C(c2cc(Cl)cc(Cl)c2)O1` (centres unmarked) [compound 110] was tested, and the “herbicidal activity against AMARE” value (AMARE [4]) was “good (A good herbicidal activity is given at values of 80 to 90)” and the “herbicidal activity against AMARE” value (AMARE [2]; application rate 1,000 kg/ha) was “good (A good herbicidal activity is given at values of 80 to 90)”.
`C=CC1(C(=O)NC2C=CC(C(=O)OC)C2)ON=C(c2cc(Cl)cc(Cl)c2)O1` (centres unmarked) [compound 111] was tested, and the “herbicidal activity against ECHCG” value (ECHCG [3]; application rate 0,250 kg/ha) was “very good (a very good herbicidal activity is given at values of 90 to 100)” and the “herbicidal activity against ECHCG” value (ECHCG [1]; application rate 0,250 kg/ha) was “very good (a very good herbicidal activity is given at values of 90 to 100)”.
